Measurements from patent US20090214434A1, “METHOD OF DETECTING AND TREATING ALLOGENIC CELLS RESPONSIBLE FOR ENDOMETRIOSIS” (priority 2004, published 2009).

Experiments:
[1] = system: endometriomas; assay: Human clinical trial: resolution or growth of endometriomas followed by monthly ultrasound under TFI chemotherapy and antioxidant counter therapy; assay type: in vivo
Source text: When TFI chemotherapy is stopped to allow the thyroid a rest, we see a general improvement in iron scavenging at lower dose rates afterwards (which hints at a multi-step process that can be slowly poisoned, most probably by I^− to tri-iodide) and usually a recovery to visibility in those in-completely resolved endometriomas during this treatment hiatus. We timed this 3rd party evidence trial to happen as we approached a pre-planned thyroid rest period, taking monthly ultrasounds before to position each active endometrioma as closely as possible, and include three such rest periods, plus two thyroid examinations.
The simplest test was to gently down-regulate the CMI in a patient while that patient was still on TFI chemotherapy, and to observe what happens next. The patient then took 800 international units of vitamin E a day (as a tocopherol). […] A second antioxidant, dietary zinc (10 mg/day), was added to the regimen. Use of both antioxidants allowed us to say that this was not a special case for either antioxidant, though the cumulative effects were very obvious. Vitamin E was stopped two weeks before zinc, to provide a period of zinc only. TFI-induced resolution was still blocked.
The patient then went into their thyroid rest period, and as usual a few recently but incompletely resolved endometriomas developed, but so did two that had been thought resolved from two years ago for a total of five.

[2] = system: normal self-cells of the uterus; assay: Transvaginal ultrasound of uterine lining / normal self-cells of the uterus, and menstrual period cycle, in the same patient; assay type: in vivo, human; settings: patient taking aspirin with TFI
Source text: In using transvaginal ultra sound, it was possible to view and compare the thickness of the uterine lining, and no abnormal change was observed despite all the activity in the peritoneal cavity.
It should be noted that use of counter chemotherapy produced no change in those similar normal self-cells of the uterus as detectable by ultrasound. All of these ultrasounds were taken at 3 to four days after the patient's periods, except the last one as they had their period cycle extended by taking aspirin.

[3] = Ghent et al (1993); U.S. Pat. No. 4,555,347; cited from earlier work

Cc1c(C)c2c(c(C)c1O)CC[C@@](C)(CCC[C@H](C)CCC[C@H](C)CCCC(C)C)O2 [vitamin E, alpha tocopherol]
change in endometriomas (number and size) ([1]; patient still on TFI chemotherapy, 800 international units of vitamin E a day): Minor change was observed, with new endometriomas developing and old ones rapidly increasing in size

[Zn] [zinc]
TFI-induced resolution of endometriomas ([1]; period of zinc only (vitamin E stopped two weeks before zinc), dietary zinc 10 mg/day, on TFI): still blocked

CC(=O)Oc1ccccc1C(=O)O [aspirin, acetylsalicylic acid]
period cycle [2]: extended

II [TFI, thermodynamically free iodine]
toxicity compared with other forms of iodine [3]: least toxicity of all forms of iodine
clean-up of endometrial cell debris, aberrant organ attachments, endometriomas and stratum functional cell masses ([1]; clinical tests (FIG. 2), patients, administration of iodine): effective
time for resolution of endometriomas (Stage I to Stage IV process) ([1]; otherwise takes about 15 years without TFI): about one or two
pain ([1]; use of TFI in the endometriosis patient): relief from pain
